US20120164729A1, “COMPOSITION FOR CULTURING PLURIPOTENT STEM CELLS AND USE THEREOF” (NATIONAL UNIVERSITY CORPORATION CHIBA UNIVERSITY, priority 2010, published 2012)

Legend:
Type in all cases: cell-based, human
201B7 cells [1] = assay: Effect of activin A on differentiation of embryoid bodies formed by hanging drop culture (microscopic observation); conditions: activin A 100 ng/mL instead of bFGF; at least 14 days after the initiation of culture; Matrigel-coated plate
Protocol: Cell culture was carried out using cells of strain HPS0001 201B7, which are human induced pluripotent stem cells (iPS cells), obtained from RIKEN BioResource Center, Cell Bank. The cell culture was carried out in a humidified chamber at 37° C. under the conditions of 5% CO2 using, as a medium, Dulbecco […] (DMEM)-F12 medium (manufactured by Sigma-Aldrich Japan K.K.) supplemented with a knockout serum replacement additive (KSR; manufactured by Life Technologies Japan, Ltd. (final concentration 20%), a 1/100 dilution of 100-times concentrated […] (manufactured by Life Technologies Japan, Ltd.), 2 mM L-glutamine (manufactured by Life Technologies Japan, Ltd.), 0.1 mM 2-mercaptoethanol (manufactured by Sigma-Aldrich Japan K.K.), and 5 ng/mL of basic fibroblast growth factor (bFGF; manufactured by Wako Pure Chemical industries, Ltd.). At this time, 201B7 cell line was proliferated by co-culturing 201B7 cell line on cells of strain SNL76/7, which are mouse-derived fetal fibroblasts proliferated on a culture plate (manufactured by AGC Techno Glass Corp.) treated with mitomycin C (manufactured by Sigma-Aldrich Japan K.K.) and coated with gelatin (manufactured by Sigma-Aldrich Japan K.K.), and the 201B7 cell line was maintained. Also, at the time of subculturing, cells were collected using a CTK solution. […]

201B7 cells [2] = assay: Immunostaining of subcultured cells for pluripotency markers (Oct3/4, Nanog, SSEA4, TRA-1-60); conditions: cells subcultured from the 11th passage
Protocol: Each of the cells at the 11th passage was seeded on a Matrigel-coated 4-well slide glass, and subculture was continued. When the cells reached 70% confluency, the medium was removed, and the cells were washed once with PBS. The cells were immobilized with 4% para-formaldehyde, and then were washed three times with PBS. Meanwhile, in the case of staining for Oct3/4 and Nanog, a permeabilization solution (0.2% Triton X-100 (PBS solution)) was added to the cells, and the cells were left to stand for 15 minutes at room temperature. Subsequently, the cells were washed three times for 5 minutes with a washing buffer (2% FBS (PBS solution)).
Thereafter, primary antibodies diluted with the washing buffer were added to the cells, and the cells were left to stand overnight at 4° C. Meanwhile, the types of the various primary antibodies and the dilution ratios are as follows.
Mouse anti-Oct3/4 antibody (BD Transduction Laboratories): 200 times
Rabbit anti-Nanog antibody (manufactured by ReproCELL Inc.): 1000 times
Mouse anti-SSEA4 antibody (manufactured by Chemicon Corporation): 200 times
Mouse anti-TRA-1-60 antibody (manufactured by Chemicon Corporation): 200 times
Subsequently, the cells were […] three times for 5 minutes with the washing buffer, and then secondary antibodies diluted with the washing buffer were added. The cells were left to stand for one hour at 4° C. […]

201B7 cells [3] = assay: Confirmation of maintenance of undifferentiation potency by alkaline phosphatase (ALP) staining and phase contrast morphology
Excerpt: It was confirmed by alkaline phosphatase (ALP) staining that the 201B7 cells cultured in the presence of activin A maintained undifferentiation potency. Meanwhile, the photographs on the left side of FIG. 3 are images observed with a phase contrast microscope, and the photographs on the right side are images observed after ALP staining.

201B7 cells [4] = assay: Alkaline phosphatase staining of subcultured cells at the 12th passage; conditions: activin A 10 ng/mL, CHIR99021 2 μM, LIF 1000 U/mL
Excerpt: Among the cells that had been subcultured as described above, those subcultured in the presence of activin A alone (A), a combination of activin A+CHIR99021 (AC), and a combination of activin A+CHIR99021+LIF (ACL) were subjected to alkaline phosphatase staining as described above, at the 12th passage. The results are shown in the photographs on the left side of FIG. 5.

201B7 cells [5] = assay: Evaluation of cell proliferative capacity by MTS assay; conditions: FIG. 2
Protocol: The proliferative capacity of 201B7 cells that had been cultured in the presence of activin A was evaluated by an MTS assay.

Question: What does the source list for “activin A: homodimer of the β chain of inhibin A (βAβA), TGF-β superfamily protein; manufactured by R & D Systems, Inc.”?
Answer: morphological condition of embryoid bodies (201B7 cells [1]): maintained a morphologically undifferentiated condition; staining of nuclei by anti-Oct3/4 antibody (201B7 cells [2]): positively stained; concentration of added activin A at which iPS cells can maintain undifferentiation potency (201B7 cells [3]; ALP staining and morphology): 0.01 to 0.1 µg/mL; ALP staining (201B7 cells [3]; activin A 1 ng/mL): positive; cell morphology (201B7 cells [3]; activin A 1 ng/mL): slightly similar to fibroblasts; ALP staining (201B7 cells [3]; activin A 10 ng/mL): positive; cell morphology (201B7 cells [3]; activin A 10 ng/mL): maintained an undifferentiated condition; ALP staining (201B7 cells [3]; activin A 30 ng/mL): positive; cell morphology (201B7 cells [3]; activin A 30 ng/mL): maintained an undifferentiated condition; ALP staining (201B7 cells [3]; activin A 100 ng/mL): positive; cell morphology (201B7 cells [3]; activin A 100 ng/mL): maintained an undifferentiated condition; ALP staining (201B7 cells [4]): positive; concentration of added activin at which 201B7 cells had proliferative capacity (201B7 cells [5]): 3 to 30 ng/mL
